Experimental data from US10583087B2, “Pharmaceutical composition for oral administration” (ASTELLAS PHARMA INC., priority 2015, dated 2020).
≈ marks a conversion by molar mass, not a printed value. Like-named read-outs stand apart in the source and are kept apart here.

Legend:
[1] = Behaviour of compound A upon contact with a solvent (gelation); type: physicochemical; details: solvent such as water
[2] = Solubility of compound A in JP dissolution test fluids; type: physicochemical

- gelation upon contact with a solvent [1]: gelled upon contact with a solvent
- pH dependence of solubility [2]: pH-dependent
- solubility ([2]; aqueous buffer, second fluid for a dissolution test of the Japanese Pharmacopoeia, JP2 (pH 6.8), read-out: solubility in a neutral pH range): ~17.8 µg/mL (≈ 28.8 µM)
- solubility ([2]; simulated gastric fluid, first fluid for a dissolution test of the Japanese Pharmacopoeia, JP1 (pH 1.2), read-out: solubility in an acidic pH range): ~44.1 µg/mL (≈ 71.3 µM)
Structure (SMILES): CC[C@@H]1CCCN1Cc1sc(NC(=O)c2cnc(N3CCC(C(=O)O)CC3)cn2)nc1-c1ccc(OC)c(C(F)(F)F)c1 [Compound A, 1-{5-[(5-{[(2R)-2-ethylpyrrolidin-1-yl]methyl}-4-[4-methoxy-3-(trifluoromethyl)phenyl]-1,3-thiazol-2-yl)carbamoyl]pyrazin-2-yl}pyperidine-4-carboxylic acid]
